The source of these data is patent publication US4039660A, “Antibiotic Y-G19Z D3 and the production thereof” (Yamanouchi Pharmaceutical Co., Ltd., priority 1974, dated 1977).

What is called zone of inhibition is the extent of the growth-free halo in a diffusion test.

Assay in all cases: Inhibition zone, disc on seeded Heart infusion agar
What all share (format): cell-based

Test [1] concerns Staphylococcus aureus 209 P. Particulars: disc dipped in 125 mcg/ml solution, read-out: diameter of the inhibition zone. From the text:
(§1) Antimicrobial activities of Y-G19ZD3 in comparison with those of Cephalosporin C against various microorganisms are shown in Table 3. The figure indicates the diameter (mm) of the inhibition zone obtained with a disc dipped in 125 mcg/ml solution on Heart infusion agar seeded with each organism.

Test [2] has as its system Proteus mirabilis IMF-OM9. Particulars: IMFOM9, read-out: diameter of the inhibition zone.
Source text: as §1

In test [3] the test system is Basillus subtilis ATCC 6633. Particulars: read-out: diameter of the inhibition zone.
Source text: as §1

Test [4] deals with Proteus morganii. The settings on record: Morganella morganii, disc dipped in 125 mcg/ml solution, read-out: diameter of the inhibition zone.
Source text: as §1

In test [5] the test system is Sarcina lutea ATCC 9941. The settings on record: Micrococcus luteus, ATCC9941, read-out: diameter of the inhibition zone.
Source text: as §1

Test [6] has as its system Klebsiella pneumoniae. The settings on record: disc dipped in 125 mcg/ml solution, read-out: diameter of the inhibition zone.
Source text: as §1

Test [7] deals with Proteus vulgaris. The settings on record: disc dipped in 125 mcg/ml solution, read-out: diameter of the inhibition zone.
Source text: as §1

With `CC(=O)OCC1=C(C(=O)O)N2C(=O)[C@@H](NC(=O)CCC[C@@H](N)C(=O)O)[C@H]2SC1` [Cephalosporin C], the zone of inhibition at 125 µg/mL in test [1] came out at 0 mm; in test [2], 17.6 mm; in test [3] it was 13.5 mm; in test [4], 0 mm; in test [5] it was 0 mm; in test [6], 0 mm. For the same molecule, in test [7], the zone of inhibition at 125 µg/mL came out at 0 mm.
